# Measured values as given in patent US9200009B2, “Polycyclic pyridone derivative having integrase inhibitory activity” (Shionogi & Co., Ltd., priority 2011, dated 2015).
# Legend:
# integrase = integrase (Human immunodeficiency virus type 1 group M subtype B, UniProt P04585); assay: Integrase inhibitory activity (Experimental Example 1); type: biochemical, HIV; conditions: integrase strand transfer ELISA, absorbance OD 405 nm
# Experimental: (1) Preparation of DNA Solution
# By the same method as that described in Experimental Example 1 of Patent Document 2, a substrate DNA solution (2 pmol/μl) and a target DNA solution (5 pmol/μl) were prepared. […] Each sequence of a substrate DNA and a target DNA is as described in the same Experimental Example.
# (2) Measurement of Inhibition Rate (IC50 Value)
# Onto Immobilizer—Streptavidin Plates (manufactured by NUNC) was added 100 μl of a substrate DNA solution (2 pmol/μl). After adsorbing at room temperature for 60 minutes under shaking, it was washed with a phosphate buffer two times.
# Then, to each well prepared as described above were added 51 μl of a reaction solution prepared from 12 μl of a buffer (composition: 150 mM MOPS (pH 7.2), 75 mM MnCl2, 50 mM 2-mercaptoethanol, 25% glycerol, 500 μg/ml bovine serum albumin-fraction V) and 39 μl of distilled water. Then, 9 μl of an integrase solution (30 pmol) was added, and the mixture was mixed well. To a well as a negative control (NC) was added 9 μl of a diluting solution (composition: 50 mM Hepes (pH 8.0), 10 mM DTT, 10% Glycerol, 0.5 M NaCl), and this was mixed well using a plate mixer.
# After the plate was incubated at 30° C. for 60 minutes, the reaction solution was discarded, followed by washing with 200 μl of a washing buffer (composition: 150 mM MOPS (pH 7.2), 50 mM 2-mercaptoethanol, 25% glycerol, 500 μg/ml bovine serum albumin-fraction V) three times.
# Then, to each well were added 53 μl of a reaction solution prepared from 12 μl of a buffer (composition: 150 mM MOPS (pH 7.2), 75 mM MgCl2, 50 mM 2-mercaptoethanol, 25% glycerol, 500 μg/ml bovine serum albumin-fraction V) and 41 μl of distilled water. Further, 6 μl of a solution of a test compound in DMSO was added to each well, and 6 μl of DMSO was added to wells as a positive control (PC) and a negative control (NC), followed by mixing well using a plate mixer. After the plate was incubated at 30° C. for 60 minutes, 1 μl of a target DNA (5 pmol/μl) was added, and this was mixed well using a plate mixer.
# After each plate was incubated at 30° C. for 10 minutes, the reaction solution was discarded, followed by washing with a phosphate buffer two times. Then, an anti-digoxigenin antibody labeled with alkaline phosphatase (sheep Fab fragment: manufactured by Boehringer) was diluted 2000-fold with an antibody diluting solution, 100 μl of the diluent was added to bind at 30° C. for 1 hour, and this was washed successively with a phosphate buffer containing 0.05% Tween 20 two times, and a phosphate buffer two times. […] C abs.: Absorbance of well of compound NC abs.: Absorbance of NC PC abs.: Absorbance of PC
# HIV virus = assay: Anti-HIV activity in MT-4 cells, MTT (Experimental Example 2); type: cell-based; conditions: Human immunodeficiency virus 1, MT4, 96 h, 50% HIV inhibition concentration, 4 days incubation
# Experimental: Previously, a series of two-fold dilution on test samples were carried out in a 96-well plate (50 μL/well). Two plates were made for measuring anti-HIV activity and measuring cytotoxicity. For each agent, measurement in duplicate was carried out. An MT-4 cell suspension of 2.5×10^5/mL was dispensed at 100 μL/well onto the 96-well plate containing the test samples. An HIV virus solution was dispensed at 50 μL/well onto the 96-well plate containing the test samples and the cell. To the plate for measuring cytotoxicity, a culture solution was dispensed at 50 μL/well. It was mixed by a plate mixer, and then incubated in a CO2 incubator for 4 days. […] Thirty microliters of a MTT (3-(4,5-dimethylthiazol-2-yl)-2,5-diphenyltetrazolium bromide) solution was dispensed to each well.
# A reaction was allowed to occur in a CO2 incubator for 1 hour. From each well, 150 μL of the supernatant was removed such that cells are not sucked. One-hundred and fifty microliters of a cell lysis solution was added thereto, and then it was mixed well by a plate mixer until the whole cells are lysed. The mixed 96-well plates were measured by a microplate reader at two wavelengths, 560 nm/690 nm. Based on the following calculation formula, 50% HIV inhibition concentration (EC50) was calculated. […]
# Based on the following calculation formula, selectivity index was calculated. […]
Compound,IC50 (integrase),EC50 (HIV virus)
C[C@@H]1CCO[C@H]2Cn3cc(-c4nnc(Cc5ccc(F)cc5F)s4)c(=O)c(O)c3C(=O)N12 [Example 4],1.3 nM,1.7 nM
C[C@@H]1CCO[C@H]2Cn3cc(-c4ncc(Cc5ccc(F)cc5)s4)c(=O)c(O)c3C(=O)N12 [Example 1],3.9 nM,–
C[C@@H]1CCO[C@H]2Cn3cc(-c4nnc(Cc5ccc(F)cc5)s4)c(=O)c(O)c3C(=O)N12 [Example 3],3.8 nM,–
C[C@@H]1CCO[C@H]2Cn3cc(-c4ncc(Cc5ccc(F)cc5F)s4)c(=O)c(O)c3C(=O)N12 [Example 2],2 nM,2.8 nM
